Assay results as given in patent US5527697A, “7-amino-3-methoxymethyl-3-cephem-4-carboxylic ester hydrolase, process for its preparation, and its use” (Hoechst Aktiengesellschaft, priority 1992, dated 1996).
Counter-ions that a name gives are not always drawn.

Tests used:
[1] = test system: esterase according to the invention (MACA-ester hydrolase); experiment: substrate specificity of the esterase according to the invention; type: biochemical
Description: Following partial purification, the enzyme can be bound without difficulty, for example to the enzyme carrier VA-Epoxy-Biosynth®. The activity is normally determined by conversion of MACA-ester to MACA. HPLC or TLC is then employed for the quantitative evaluation of the amount of MACA that is formed.
The following table contains further information concerning the substrate specificity of the esterase according to the invention: […]

[2] = test system: immobilized enzyme (MACA-ester hydrolase); experiment: cleavage of MACA ester (R) with immobilized esterase; type: biochemical, Nocardia sp. ATCC 53492; conditions: within 6-8 hours; pH 6.8, 30° C.; 5 g substrate, 100 g moist immobilized enzyme
Method: 2.5 g of R-ester hydrochloride are dissolved in 800 ml of 50 mM potassium phosphate solution, pH=6.8. 100 g of moist, immobilized enzyme are then added with stirring. The pH is kept at 6.8 and the temperature at 30° C. Further 1.25 g amounts of substrate are added after 2.5 h and after 41/4 h. In all, the mixture contains 5 g of MACA ester (R). The cleavage proceeds within the space of 6-8 hours to 95% conversion according to HPLC. The cleavage solution is separated from the enzyme and lyophilized. About 10 g of a white solid are obtained.

[3] = substrate concentration 100 mM, relative to MACA ester pro J = 100
[4] = substrate concentration 2.5 mM, MACA ester pro J = 100
[5] = substrate concentration 1.59 mM, HEPES, pH 6.95
[6] = substrate concentration 2.5 mM, phosphate buffer, pH 6.8

| Structure (SMILES) | Activity U/mg ([1]; substrate concentration 100 mM) | Activity U/ml ([1]; substrate concentration 100 mM) | Activity % [1, 3] | further results |
| --- | --- | --- | --- | --- |
| CC(OC(=O)C(C)(C)C)OC(=O)C(C)(C)C |  |  |  | Activity U/mg ([1]; substrate concentration 50 mM): 3.5 U/mg; Activity U/ml ([1]; substrate concentration 50 mM): 1.4 U/ml; Activity % ([1]; substrate concentration 50 mM, relative to MACA ester pro J = 100): 4% |
| CCOC(=O)C(C)N (racemic) [D,L-alanine ethyl ester] | 40 U/mg | 16 U/ml | 45.5% |  |
| CCOC(=O)C(C)Cl (stereo not shown) [Ethyl 2-chloro-propionate, ethyl 2-chloropropionate] | 75 U/mg | 30 U/ml | 85.2% |  |
| CCOC(=O)C(C)(C)C [Ethyl pivalate] | 42.75 U/mg | 17.1 U/ml | 48.6% |  |
| CCOC(=O)CC [Ethyl propionate] | 50 U/mg | 20 U/ml | 56.8% |  |
| COCC1=C(C(=O)O[C@H](C)OC(=O)C(C)(C)C)N2C(=O)C(N)[C@@H]2SC1 (stereo partly drawn) [MACA ester pro J, (1R,S)-1-(2,2-dimethylpropionyloxy)-ethyl 7-amino-3-methoxymethyl-3-cephem-4-carboxylate] |  |  |  | Activity U/mg ([1]; substrate concentration 2.5 mM): 87.75 U/mg; Activity U/ml ([1]; substrate concentration 2.5 mM): 35.2 U/ml; Activity % [1, 4]: 100% |
| COCC1=C(C(=O)O[C@H](C)OC(=O)C(C)(C)C)N2C(=O)C(N)[C@@H]2SC1 (stereo partly drawn) [MACA ester pro K, (1R,S)-1-(2,2-dimethylpropionyloxy)-ethyl 7-amino-3-methoxymethyl-3-cephem-4-carboxylate] |  |  |  | Activity U/mg ([1]; substrate concentration 2.5 mM): 87.75 U/mg; Activity U/ml ([1]; substrate concentration 2.5 mM): 35.1 U/ml; Activity % [1, 4]: 99.7% |
| COCC1=C(C(=O)O[C@H](C)OC(=O)C(C)(C)C)N2C(=O)[C@@H](N)[C@H]2SC1 [R-ester hydrochloride] |  |  |  | conversion according to HPLC [2]: 95% |
| CC(=O)OCC(COC(C)=O)OC(C)=O [Triacetin] | 92.75 U/mg | 37.1 U/ml | 105.4% |  |
| CCCC(=O)OCC(COC(=O)CCC)OC(=O)CCC [Tributyrin] | 93.75 U/mg | 37.5 U/ml | 106.5% |  |
| CC(=O)Oc1ccc([N+](=O)[O-])cc1 [p-Nitrophenyl acetate, p-nitrophenyl acetate] |  |  |  | Activity U/mg [1, 5]: 76.0 U/mg; Activity U/ml [1, 5]: 30.4 U/ml; Activity % ([1]; substrate concentration 1.59 mM, HEPES, pH 6.95, relative to MACA ester pro J = 100): 86.4%; Activity U/mg [1, 6]: 108.75 U/mg; Activity U/ml [1, 6]: 43.5 U/ml; Activity % ([1]; substrate concentration 2.5 mM, phosphate buffer, pH 6.8, relative to MACA ester pro J = 100): 123.6% |
